Where a chain is given by its changes, count along the chain named. pIC50: −log10 of the molar value. Activity calls are given as the source filed them. The calls are words filed in the database; no cut-off is given here.
Experiments:
[1] = target: T1, 4,4'-diapophytoene desaturase (4,4'-diaponeurosporene-forming) (Staphylococcus aureus (strain Newman), UniProt O07855); assay: Inhibition of CrtN in Staphylococcus aureus Newman assessed as reduction in staphyloxanthin levels after 48 hrs by spectrophotometric method-based pigment inhibition assay; design: species or system Staphylococcus aureus subsp. aureus str. Newman
T1 sequence (O07855 whole entry): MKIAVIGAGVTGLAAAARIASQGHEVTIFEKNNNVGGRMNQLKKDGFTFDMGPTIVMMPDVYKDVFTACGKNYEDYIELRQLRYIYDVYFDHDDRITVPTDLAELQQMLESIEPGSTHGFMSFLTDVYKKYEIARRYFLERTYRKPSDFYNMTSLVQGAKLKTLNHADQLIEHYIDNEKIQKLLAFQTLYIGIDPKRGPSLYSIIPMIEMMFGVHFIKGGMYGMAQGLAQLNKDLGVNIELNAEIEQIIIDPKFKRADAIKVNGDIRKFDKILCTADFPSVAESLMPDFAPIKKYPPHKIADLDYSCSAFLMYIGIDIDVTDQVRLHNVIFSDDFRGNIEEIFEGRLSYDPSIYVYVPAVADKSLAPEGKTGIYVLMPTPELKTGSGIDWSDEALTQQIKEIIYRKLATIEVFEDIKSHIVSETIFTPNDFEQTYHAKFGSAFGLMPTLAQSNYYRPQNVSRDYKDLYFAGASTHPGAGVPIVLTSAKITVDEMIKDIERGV

[2] = Cytotoxicity against HEK293T cells after 72 hrs by CCK8 assay; format: cell-based, HEK-293T; settings: human
[3] = Cytotoxicity against human HepG2 cells after 72 hrs by CCK8 assay; format: cell-based
Staphylococcus aureus [4] = assay: Antibacterial activity against vancomycin-intermediate Staphylococcus aureus Mu50 infected in BALB/c mouse assessed as reduction of bacterial burden in heart at 0.1 mg, ip bid for 3.5 days administered 6 hrs post bacterial infection measured 84 hrs post infection relative to control; format: functional
Staphylococcus aureus [5] = assay: Antibacterial activity against vancomycin-intermediate Staphylococcus aureus Mu50 infected in BALB/c mouse assessed as reduction of bacterial burden in heart at 0.4 mg, ip bid for 3.5 days administered 6 hrs post bacterial infection measured 84 hrs post infection relative to control; format: functional
Staphylococcus aureus [6] = assay: Antibacterial activity against vancomycin-intermediate Staphylococcus aureus Mu50 infected in BALB/c mouse assessed as reduction of bacterial burden in liver at 0.1 mg, ip bid for 3.5 days administered 6 hrs post bacterial infection measured 84 hrs post infection; format: functional, organism-based
Staphylococcus aureus [7] = assay: Antibacterial activity against vancomycin-intermediate Staphylococcus aureus Mu50 infected in BALB/c mouse assessed as reduction of bacterial burden in liver at 0.4 mg, ip bid for 3.5 days administered 6 hrs post bacterial infection measured 84 hrs post infection; format: functional, organism-based
Staphylococcus aureus [8] = assay: Antibacterial activity against vancomycin-intermediate Staphylococcus aureus Mu50 infected in BALB/c mouse assessed as reduction of bacterial burden in liver at 0.1 mg, ip bid administered at 12 hrs prior to bacterial infection dosed at 12 intervals for 4.5 days; format: functional, organism-based
Staphylococcus aureus [9] = assay: Antibacterial activity against vancomycin-intermediate Staphylococcus aureus Mu50 infected in BALB/c mouse assessed as reduction of bacterial burden in liver at 0.4 mg, ip bid administered at 12 hrs prior to bacterial infection dosed at 12 intervals for 4.5 days; format: functional, organism-based
Staphylococcus aureus [10] = assay: Antibacterial activity against linezolid-resistant Staphylococcus aureus NRS271 infected in BALB/c mouse assessed as reduction of bacterial burden in liver at 0.1 mg, ip bid administered at 12 hrs prior to bacterial infection dosed at 12 intervals for 4.5 days; format: functional, organism-based
Staphylococcus aureus [11] = assay: Antibacterial activity against linezolid-resistant Staphylococcus aureus NRS271 infected in BALB/c mouse assessed as reduction of bacterial burden in liver at 0.4 mg, ip bid administered at 12 hrs prior to bacterial infection dosed at 12 intervals for 4.5 days; format: functional, organism-based
Staphylococcus aureus [12] = assay: Antibacterial activity against linezolid-resistant Staphylococcus aureus NRS271 infected in BALB/c mouse assessed as reduction of bacterial burden in heart at 0.1 mg, ip bid administered at 24 hrs prior to bacterial infection dosed at 12 intervals for 4.5 days
Staphylococcus aureus [13] = assay: Antibacterial activity against linezolid-resistant Staphylococcus aureus NRS271 infected in BALB/c mouse assessed as reduction of bacterial burden in heart at 0.4 mg, ip bid administered at 24 hrs prior to bacterial infection dosed at 12 intervals for 4.5 days
[14] = target: Voltage-gated inwardly rectifying potassium channel KCNH2 (Homo sapiens, UniProt Q12809); assay: Inhibition of recombinant human ERG expressed in CHO cells at -80 mV holding potential measured after 3 minutes by automated whole cell patch clamp Qpatch method; format: cell-based
Chain of Voltage-gated inwardly rectifying potassium channel KCNH2 (Q12809 whole entry): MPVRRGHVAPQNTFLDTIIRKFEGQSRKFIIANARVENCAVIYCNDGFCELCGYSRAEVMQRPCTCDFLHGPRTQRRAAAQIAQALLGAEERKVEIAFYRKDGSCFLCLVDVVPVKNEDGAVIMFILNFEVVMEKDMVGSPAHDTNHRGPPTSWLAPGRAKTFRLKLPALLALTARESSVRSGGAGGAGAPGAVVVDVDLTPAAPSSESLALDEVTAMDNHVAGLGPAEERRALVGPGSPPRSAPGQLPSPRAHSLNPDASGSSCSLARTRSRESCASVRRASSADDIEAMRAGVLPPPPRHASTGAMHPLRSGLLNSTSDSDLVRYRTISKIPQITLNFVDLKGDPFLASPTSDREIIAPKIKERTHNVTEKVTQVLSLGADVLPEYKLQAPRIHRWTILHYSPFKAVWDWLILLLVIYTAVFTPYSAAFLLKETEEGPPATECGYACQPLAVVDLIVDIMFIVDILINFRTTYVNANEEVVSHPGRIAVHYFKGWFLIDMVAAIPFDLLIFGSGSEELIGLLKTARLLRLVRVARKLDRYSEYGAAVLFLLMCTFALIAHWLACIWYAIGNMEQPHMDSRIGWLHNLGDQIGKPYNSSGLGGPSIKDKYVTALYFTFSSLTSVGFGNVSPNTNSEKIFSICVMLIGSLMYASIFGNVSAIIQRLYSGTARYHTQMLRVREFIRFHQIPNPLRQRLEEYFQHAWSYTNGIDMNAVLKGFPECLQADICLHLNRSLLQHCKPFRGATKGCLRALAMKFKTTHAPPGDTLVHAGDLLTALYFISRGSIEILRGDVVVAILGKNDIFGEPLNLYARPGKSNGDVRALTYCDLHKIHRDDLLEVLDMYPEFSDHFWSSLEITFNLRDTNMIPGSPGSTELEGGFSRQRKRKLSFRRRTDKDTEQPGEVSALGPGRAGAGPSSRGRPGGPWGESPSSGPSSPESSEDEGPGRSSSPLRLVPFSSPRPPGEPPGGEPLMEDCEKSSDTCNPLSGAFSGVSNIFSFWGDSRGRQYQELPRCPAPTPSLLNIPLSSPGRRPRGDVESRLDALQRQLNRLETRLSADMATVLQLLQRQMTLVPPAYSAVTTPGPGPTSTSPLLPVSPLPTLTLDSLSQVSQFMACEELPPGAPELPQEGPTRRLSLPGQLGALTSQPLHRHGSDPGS

[15] = Solubility of the compound in water at 10 mg measured after 24 hrs by HPLC method; format: physicochemical
[16] = target: T1, 4,4'-diapophytoene desaturase (4,4'-diaponeurosporene-forming); assay: Inhibition of Staphylococcus aureus Newman […]-tagged CrtN expressed in Escherichia coli BL21(DE3))/pET28a::CrtN assessed as reduction in staphyloxanthin levels using diapophytoene as substrate after overnight incubation; design: species or system Staphylococcus aureus subsp. aureus str. Newman
[17] = target: T2, 4,4'-diapophytoene desaturase (4,4'-diaponeurosporene-forming) (Staphylococcus aureus (strain Mu50 / ATCC 700699), UniProt Q99R76); assay: Inhibition of CrtN in vancomycin-intermediate Staphylococcus aureus Mu50 assessed as reduction in staphyloxanthin levels after 48 hrs by spectrophotometric method-based pigment inhibition assay; design: species or system Staphylococcus aureus subsp. aureus Mu50
T2 sequence (Q99R76 whole entry): T1 sequence (O07855 whole entry)

[18] = target: T1, 4,4'-diapophytoene desaturase (4,4'-diaponeurosporene-forming); assay: Inhibition of CrtN in linezolid-resistant Staphylococcus aureus NRS271 assessed as reduction in staphyloxanthin levels after 48 hrs by spectrophotometric method-based pigment inhibition assay
[19] = target: T3, 4,4'-diapophytoene desaturase (4,4'-diaponeurosporene-forming) (Staphylococcus aureus (strain MW2), UniProt Q8NUQ6); assay: Inhibition of CrtN in methicillin-resistant Staphylococcus aureus USA400 MW2 assessed as reduction in staphyloxanthin levels after 48 hrs by spectrophotometric method-based pigment inhibition assay; design: species or system Staphylococcus aureus subsp. aureus MW2
T3 sequence (Q8NUQ6 whole entry): T1 sequence (O07855 whole entry) with R500Q

[20] = target: T3, 4,4'-diapophytoene desaturase (4,4'-diaponeurosporene-forming); assay: Inhibition of CrtN in methicillin-resistant Staphylococcus aureus LAC USA300 assessed as reduction in staphyloxanthin levels after 48 hrs by spectrophotometric method-based pigment inhibition assay; design: species or system Staphylococcus aureus subsp. aureus USA300

## COc1cccc(/C=C/CN(C)Cc2ccc3c(c2)OCCO3)c1
[1]
  pIC50: < 6.00

## CN(C/C=C/c1ccccc1F)Cc1ccc2c(c1)OCCO2
[1]
  pIC50: < 6.00

## CN(C/C=C/C1CCCCC1)Cc1ccc2c(c1)OCCO2
[1]
  pIC50: < 6.00

## CN(C/C=C/c1ccc(C(F)(F)F)c(F)c1)Cc1ccc2c(c1)OCCO2
[1]
  pIC50: 7.86

## C[C@@H]1[C@H](O)[C@@H](C)/C=C/C=C/C=C/C=C/C=C/C=C/C=C/[C@H](O[C@@H]2O[C@H](C)[C@@H](O)[C@H](N)[C@@H]2O)C[C@@H]2O[C@](O)(C[C@@H](O)C[C@@H](O)[C@H](O)CC[C@@H](O)C[C@@H](O)CC(=O)O[C@H]1C)C[C@H](O)[C@H]2C(=O)O [AMPHOTERICIN B]
[2]
  CC50 at 72 h: 27.5 µM
[3]
  CC50 at 72 h: 37.8 µM

## COc1ccc(/C=C/CN(C)Cc2ccc3c(c2)OCCO3)cc1F
[1]
  pIC50: 7.24

## COc1ccccc1/C=C/CN(C)Cc1ccc2c(c1)OCCO2
[1]
  pIC50: < 6.00

## CC(=O)NC[C@H]1CN(c2ccc(N3CCOCC3)c(F)c2)C(=O)O1
Staphylococcus aureus [4]
  Activity: Active
Staphylococcus aureus [5]
  Activity: Active
Staphylococcus aureus [6]
  Activity: Active
Staphylococcus aureus [7]
  Activity: Active
Staphylococcus aureus [8]
  Activity: Active
Staphylococcus aureus [9]
  Activity: Active
Staphylococcus aureus [10]
  Activity: Active
Staphylococcus aureus [11]
  Activity: Active
Staphylococcus aureus [12]
  Activity: Active
Staphylococcus aureus [13]
  Activity: Active

## CCOc1ccc(/C=C/CN(C)Cc2ccc3c(c2)OCCO3)cc1
[1]
  pIC50: 8.09

## CN(C/C=C/c1ccc(-c2ccccc2)cc1)Cc1ccc2c(c1)OCCO2
[1]
  pIC50: 8.39

## CN(C/C=C/c1ccc(Br)cc1)Cc1ccc2c(c1)OCCO2
[1]
  pIC50: 8.09

## CN(C/C=C/c1cccc(Cl)c1)Cc1ccc2c(c1)OCCO2
[1]
  pIC50: 6.95

## Cc1ccc(/C=C/CN(C)Cc2ccc3c(c2)OCCO3)cc1.Cl
[1]
  pIC50: 8.49
[14]
  pIC50: 5.34
[15]
  solubility at 24 h: 6500 µg/mL

## CN(C/C=C/C=C/C=C/c1ccc(C(F)(F)F)cc1)Cc1ccc2c(c1)OCCO2.Cl
[1]
  pIC50: 8.80
[16]
  pIC50: 6.59
[17]
  pIC50: 8.92
[18]
  pIC50: 9.40
[19]
  pIC50: 8.28
[20]
  pIC50: 8.43
[14]
  pIC50: 5.06
[15]
  solubility at 24 h: 3300 µg/mL

## CN(C/C=C/c1ccc(C#N)cc1)Cc1ccc2c(c1)OCCO2
[1]
  pIC50: 7.72

## CN(C/C=C/c1ccccc1)Cc1ccc2c(c1)OCCO2
[1]
  pIC50: 6.43

## COc1ccc(/C=C/CN(C)Cc2ccc3c(c2)OCCO3)c(F)c1
[1]
  pIC50: 7.36

## CN(C/C=C/c1ccc([N+](=O)[O-])cc1)Cc1ccc2c(c1)OCCO2
[1]
  pIC50: 7.72

## Cc1cccc(/C=C/CN(C)Cc2ccc3c(c2)OCCO3)c1
[1]
  pIC50: 7.36

## COc1ccc(/C=C/CN(C)Cc2ccc3c(c2)OCCO3)cc1
[1]
  pIC50: 7.31

## CN(C/C=C/c1ccc(F)cc1)Cc1ccc2c(c1)OCCO2
[1]
  pIC50: 7.70

— ChEMBL document CHEMBL4251700, “Novel Staphyloxanthin Inhibitors with Improved Potency against Multidrug Resistant Staphylococcus aureus” (ACS Med Chem Lett, 2018)
